Literature values, collected in patent publication US8846104B2, “Pharmaceutical compositions for the deterrence and/or prevention of abuse” (priority 2006, dated 2014).

Test system: mu over delta sites

O=C1CC[C@@]2(O)[C@H]3Cc4ccc(O)c5c4[C@@]2(CCN3CC2CC2)[C@H]1O5 [naltrexone]
blocking action, site preference: strong preferential blocking action against mu over delta sites
